According to patent US20250114367A1, “METHOD OF TREATING HAIR LOSS DISORDERS” (Sun Pharmaceutical Industries, Inc., priority 2023, published 2025):

What was measured:
[1] = test system: adult subjects with moderate to severe AA; assay: Phase III trial: Clinical Global Impression of Severity (CGI-S); type: in vivo, human
Procedure: The CGI-S was assessed by the investigator and considered the severity of the subject's alopecia at the time of assessment. The investigator selected 1 of 7 numeric choices representing “Among the most extreme hair loss” to “Normal, no hair loss.” To reduce variability, 1 rater was to perform the CGI-S assessment for the subject. The definitions of the numeric choices is as follows: 1=normal, no hair loss; 2=borderline hair loss; 3=mild hair loss; 4=moderately hair loss; 5=marked hair loss; 6=severe hair loss; 7=among the most extreme hair loss.
(§1) A Phase III trial was conducted to assess the efficacy and safety of CTP-543 in adult subjects with moderate to severe AA. Approximately 440 adult male and female subjects 18 to 65 years of age, inclusive, with moderate to severe AA participated in the study. Subjects with definitive diagnosis of AA, and at least 50% hair loss, as defined by a SALT score ≥50, who met all of the inclusion criteria and none of the exclusion criteria participated in the study.
(§2) The Screening Period lasted up to 28 days prior to initiation of study drug. […] Randomization was stratified by scalp hair loss into 1 of the following 2 categories: 1) partial scalp hair loss (SALT ≥50 and <95), 2) complete or near complete scalp hair loss (SALT ≥95).
(§3) Additional secondary efficacy endpoints included the following: • Relative change in SALT scores from baseline at Weeks 4, 8, 12, 16, 20, and 24. • Percentage of responders (defined as “much improved” or “very much improved”) using the Clinical Global Impression of Improvement (CGI-I) at Weeks 12, 16, 20, and 24. • Percentage of responders (defined as “much improved” or “very much improved”) using the Patient Global Impression of Improvement (PGI-I) at Weeks 12, 16, 20, and 24. • Change from baseline in the Clinical Global Impression of Severity (CGI-S) at Weeks 12, 16, 20, and 24. • Change from baseline in the Patient Global Impression of Severity (PGI-S) at Weeks 12, 16, 20, and 24. • Change from baseline on the Brigham Eyebrow Tool for Alopecia (BETA) score at Weeks 12 and 24. • Change from baseline on the Brigham Eyelash Tool for Alopecia (BELA) score at Weeks 12 and 24. • Percentage of subjects achieving at least a 75% relative reduction in SALT score from baseline at Weeks 12 and 24. • Percentage of subjects achieving at least a 90% relative reduction in SALT score from baseline at Weeks 12 and 24. • Percentage of responders (defined as “satisfied” or “very satisfied”) on the SPRO scale at Weeks 12, 16, and 20. • Change from baseline in the SPRO scale at Weeks 12, 16, 20, and 24. • Percentage of subjects achieving a ≥2-point change from baseline in the SPRO scale at Weeks 12, 16, 20, and 24. • Change from baseline on the individual items of the Hair Quality Patient Reported Outcome (QPRO) scale at Weeks 12, 16, 20, and 24. • Change from baseline in the depression scale of the Hospital Anxiety and Depression Scale (HADS) at Week 24. • Change from baseline in the anxiety scale of the HADS at Week 24. • Percentage of subjects achieving an absolute SALT score of ≤20 at Week 4. • Percentage of subjects achieving an absolute SALT score of ≤10 at Week 24
A decrease in CGI-I score indicates improvement (impression is decreased severity). Similar to other endpoints, decreases favoring the active group over placebo were observed beginning at Week 12 and continuing through Week 24, and the magnitude of the differences increased at each subsequent time point. […] Detailed data for each time point are described below.

[2] = test system: adult subjects with moderate to severe AA; assay: Phase III trial: Brigham Eyelash Tool for Alopecia (BELA); type: in vivo, human
Procedure: The BELA is a clinician-rated scale developed by dermatologists at Brigham and Women's Hospital that assesses the total eyelash hair present Manjaly, P. et al., Development and validation of the Brigham Eyelash Tool for Alopecia (BELA): A measure of eyelash alopecia areata, J Am Acad Dermatol (2021) 1-2. The BELA is calculated based on grade values (range 0 to 3) and distribution. The BELA score is the sum of the individual scores for the left and right eyes (range 0 (absent) to 6). The same expert panel of certified raters at Brigham and Women's Hospital who performed the BETA assessment also performed central readings based on photographs of the eyelashes and determined a score for each subject with eyelash involvement following each visit where an assessment of eyelash hair presence was assessed. The BELA was performed at baseline, Week 12, and Week 24. If a subject was unable to attend an in-person clinic visit due to COVID-19, the BELA may not have been performed due to the inability to take photographs of the eyelashes.
as §1
The Screening Period lasted up to 28 days prior to initiation of study drug. […] Randomization was stratified by scalp hair loss into 1 of the following 2 categories: 1) partial scalp hair loss (SALT ≥50 and <95), 2) complete or near complete scalp hair loss (SALT ≥95). […]

[3] = test system: adult subjects with moderate to severe AA; assay: Phase III trial: Patient Global Impression of Improvement (PGI-I); type: in vivo, human; conditions: non-missing data
Procedure: The PGI-I was assessed by the subject. Compared to the subject's AA prior to treatment at baseline, the subject's current state of AA was assessed according to his/her perceived change. The subject selected 1 of 7 numeric choices representing “Very Much Worse” to “Very Much Improved.” If a subject was unable to attend an in-person clinic visit due to COVID-19, the PGI-I was to be performed via a virtual visit with video capability.
as §1, §2, §3
Detailed data are described below.

subjects with AA = assay: Open-label extension (OLE) studies: safety
Procedure: Two separate OLE trials were conducted in North America (CP543.5001) and the European Union (CP543.5002). […] Both OLE trials were similarly designed, except: Trial CP543.5001 (North America) participants have the opportunity to continue in the trial for a maximum of 276 weeks; and Trial CP543.5002 (European Union) participants have the opportunity to continue in the trial for a maximum of 108 weeks.
Subjects receiving any active dose of deuruxolitinib in the qualifying trials were initially assigned to receive either 8 mg BID or 12 mg BID in the OLE trial. Subjects receiving placebo in the qualifying trial were assigned to either deuruxolitinib 8 mg BID or 12 mg BID. Subjects were allowed to switch doses during the OLE after initial treatment assignment at the discretion of the Principal Investigator.

[4] = test system: adult subjects with moderate to severe AA; assay: Phase III trial: Hair Quality Patient Reported Outcome (QPRO); type: in vivo, human; conditions: Weeks 12, 16, 20, and 24
Procedure: as §1, §2, §3
The individual items of satisfaction with thickness of hair coverage, satisfaction with evenness of hair coverage, satisfaction with eyebrows, and satisfaction with eyelashes are rated on a scale of 1 to 5. A decrease from baseline in the QPRO score represents improvement. For each item and time point, treatment group differences favored CTP-543 over placebo.

In the case of [2H]C1([2H])C([C@@H](CC#N)n2cc(-c3ncnc4[nH]ccc34)cn2)C([2H])([2H])C([2H])([2H])C1([2H])[2H] [CTP-543, (R)-3-(4-(7H-pyrrolo[2,3-d]pyrimidin-4-yl)-1H-pyrazol-1-yl)-3-(cyclopentyl-2,2,3,3,4,4,5,5-d8) propanenitrile], the “CGI-S, LS mean change from baseline” value ([1]; Week 12, 8 mg BID) is reported as −1.3, the “CGI-S, LS mean change from baseline” value ([1]; Week 12, 12 mg BID) is reported as −1.4 and the “CGI-S, LS mean change from baseline” value ([1]; Week 16, 12 mg BID) is reported as −1.8. For the same molecule, the “CGI-S, LS mean change from baseline” value ([1]; Week 20, 8 mg BID) was −1.8, the “CGI-S, LS mean change from baseline” value ([1]; Week 20, 12 mg BID) was −2.1 and the “CGI-S, LS mean change from baseline” value ([1]; Week 24, 8 mg BID) was −2.1. The “CGI-S, LS mean change from baseline” value ([1]; Week 24, 12 mg BID) was −2.4, the “BELA score, LS mean change from baseline” value ([2]; Week 12, 8 mg BID) was 0.9 and the “BELA score, LS mean change from baseline” value ([2]; Week 12, 12 mg BID) was 1.0. For the same molecule, the “BELA score, LS mean change from baseline” value ([2]; Week 24, 8 mg BID) was 1.4, the “BELA score, LS mean change from baseline” value ([2]; Week 24, 12 mg BID) was 1.5 and the “percentage of PGI-I responders (very much improved or much improved)” value (“percentage of PGI-I responders” below) ([3]; Week 24, 8 mg BID) was 50.9%. For the same molecule, the “percentage of PGI-I responders” value ([3]; Week 24, 12 mg BID) was 68.3%, the “percentage of PGI-I responders” value ([3]; week 12, 8 mg BID) was 43.3% and the “percentage of PGI-I responders” value ([3]; week 12, 12 mg BID) was 49.2%. For the same molecule, the “percentage of PGI-I responders” value ([3]; week 16, 8 mg BID) was 46.2%, the “percentage of PGI-I responders” value ([3]; week 16, 12 mg BID) was 59.8% and the “percentage of PGI-I responders” value ([3]; week 20, 8 mg BID) was 48.7%. For the same molecule, the “percentage of PGI-I responders” value ([3]; week 20, 12 mg BID) was 64.4%, the “most common adverse events” value (subjects with AA) was “COVID-19, acne, nasopharyngitis, headache, asymptomatic COVID-19, creatinine phosphokinase increase, and upper respiratory tract infection” and the “QPRO satisfaction with evenness of hair coverage, treatment group difference from placebo” value ([4]; 8 mg BID) was −1.3 to −0.9. For the same molecule, the “QPRO satisfaction with eyebrows, treatment group difference from placebo” value ([4]; 8 mg BID) was −1.2 to −1.0, the “QPRO satisfaction with eyelashes, treatment group difference from placebo” value ([4]; 8 mg BID) was −1.2 to −0.9 and the “QPRO satisfaction with thickness of hair coverage, treatment group difference from placebo” value ([4]; 8 mg BID) was −1.3 to −1.0. For the same molecule, the “QPRO satisfaction with evenness of hair coverage, treatment group difference from placebo” value ([4]; 12 mg BID) was −1.5 to −1.0, the “QPRO satisfaction with eyebrows, treatment group difference from placebo” value ([4]; 12 mg BID) was −1.5 to −1.1 and the “QPRO satisfaction with eyelashes, treatment group difference from placebo” value ([4]; 12 mg BID) was −1.4 to −0.9. For the same molecule, the “QPRO satisfaction with thickness of hair coverage, treatment group difference from placebo” value ([4]; 12 mg BID) was −1.6 to −1.1.
